Laboratory results taken from patent US12336972B2, “Synergistic nutritional compositions for treating neurocognitive disorders” (CELAGENEX RESEARCH (INDIA) PVT. LTD., priority 2021, dated 2025).

Columns and labels:
[1] = design: species or system Swiss albino mice; settings: mouse, in vivo
Text: Housing Conditions: [table]

[2] = test system: Acetylcholine; assay: Cholinergic dysfunction: Acetylcholine level; format: in vivo, Swiss albino mice
[3] = test system: scopolamine induced memory deficit (Alzheimer's disease) in Swiss albino mice; assay: Pole climbing test, scopolamine induced memory deficit
[4] = test system: scopolamine induced memory deficit (Alzheimer's disease) in Swiss albino mice; assay: Spatial learning test (T-maze test), scopolamine induced memory deficit
[5] = test system: Tau protein; assay: Tau pathology: Tau protein in serum; format: in vivo, Swiss albino mice
[6] = test system: Brain-derived neurotrophic factor (BDNF); assay: Neurotrophic factors: BDNF in serum; format: in vivo, Swiss albino mice
[7] = test system: TNF-α; assay: Neuro-inflammation cytokines: TNF-α; format: in vivo, Swiss albino mice; settings: serum (FIG. 7)
[8] = test system: IL-6; assay: Neuro-inflammation cytokines: IL-6 in cerebral cortex; format: in vivo, Swiss albino mice

Structure (SMILES): COc1cc2c(cc1OC)C(=O)C(CC1CCN(Cc3ccccc3)CC1)C2 (stereo not drawn) [Group 3, Donepezil]
- Body Weight, Initial [1]: 28.17 ± 2.5 gm
- Feed Consumption, 0 day [1]: 3.98 gm
- Feed Consumption, Week 4 [1]: 4.68 gm
- Ach ([2]; Average of 6 animals): 64.95 pg/mg
- Ach ([2]; animal 1): 63.20 pg/mg
- Ach ([2]; animal 2): 64.80 pg/mg
- Ach ([2]; animal 3): 66.50 pg/mg
- Ach ([2]; animal 4): 62.50 pg/mg
- Ach ([2]; animal 5): 67.20 pg/mg
- Ach ([2]; animal 6): 65.50 pg/mg
- Pole climbing test, time ([3]; Average of 6 animals): 69.83 s
- Pole climbing test, time ([3]; animal 1): 75 s
- Pole climbing test, time ([3]; animal 2): 72 s
- Pole climbing test, time ([3]; animal 3): 65 s
- Pole climbing test, time ([3]; animal 4): 61 s
- Pole climbing test, time ([3]; animal 5): 77 s
- Pole climbing test, time ([3]; animal 6): 69 s
- T-Maze test, Latency time ([4]; Average of 6 animals): 19.00 s
- T-Maze test, Number of entries in discriminated arm ([4]; Average of 6 animals): 2.67
- T-Maze test, time spent in the discriminated arm ([4]; Average of 6 animals): 55.83 s
- T-Maze test, Number of entries in discriminated arm ([4]; animal 1): 3
- T-Maze test, time spent in the discriminated arm ([4]; animal 1): 60 s
- T-Maze test, Number of entries in discriminated arm ([4]; animal 2): 2
- T-Maze test, time spent in the discriminated arm ([4]; animal 2): 55 s
- T-Maze test, Number of entries in discriminated arm ([4]; animal 3): 3
- T-Maze test, time spent in the discriminated arm ([4]; animal 3): 56 s
- T-Maze test, Number of entries in discriminated arm ([4]; animal 4): 2
- T-Maze test, time spent in the discriminated arm ([4]; animal 4): 53 s
- T-Maze test, Number of entries in discriminated arm ([4]; animal 5): 3
- T-Maze test, time spent in the discriminated arm ([4]; animal 5): 55 s
- T-Maze test, Number of entries in discriminated arm ([4]; animal 6): 3
- T-Maze test, time spent in the discriminated arm ([4]; animal 6): 56 s
- T-Maze test, Number of entries in preferred arm ([4]; Average of 6 animals): 5.17
- T-Maze test, time spent in the preferred arm ([4]; Average of 6 animals): 120.67 s
- T-Maze test, Number of entries in preferred arm ([4]; animal 1): 5
- T-Maze test, time spent in the preferred arm ([4]; animal 1): 115 s
- T-Maze test, Number of entries in preferred arm ([4]; animal 2): 6
- T-Maze test, time spent in the preferred arm ([4]; animal 2): 125 s
- T-Maze test, Number of entries in preferred arm ([4]; animal 3): 4
- T-Maze test, time spent in the preferred arm ([4]; animal 3): 121 s
- T-Maze test, Number of entries in preferred arm ([4]; animal 4): 5
- T-Maze test, time spent in the preferred arm ([4]; animal 4): 131 s
- T-Maze test, Number of entries in preferred arm ([4]; animal 5): 6
- T-Maze test, time spent in the preferred arm ([4]; animal 5): 110 s
- T-Maze test, Number of entries in preferred arm ([4]; animal 6): 5
- T-Maze test, time spent in the preferred arm ([4]; animal 6): 122 s
- T-Maze test, Latency time ([4]; animal 1): 20 s
- T-Maze test, Latency time ([4]; animal 2): 19 s
- T-Maze test, Latency time ([4]; animal 3): 20 s
- T-Maze test, Latency time ([4]; animal 4): 18 s
- T-Maze test, Latency time ([4]; animal 5): 18 s
- T-Maze test, Latency time ([4]; animal 6): 19 s

Structure (SMILES): NCCCS(=O)(=O)O [Group 5, 3-amino-1-propanesulfonic acid]
- Body Weight, Initial [1]: 28.17 ± 2.5 gm
- Feed Consumption, 0 day [1]: 3.83 gm
- Feed Consumption, Week 4 [1]: 4.88 gm
- Tau Protein in Serum ([5]; Average of 6 animals): 0.97 ng/mL
- Tau Protein in Serum ([5]; animal 1): 1.10 ng/mL
- Tau Protein in Serum ([5]; animal 2): 1.00 ng/mL
- Tau Protein in Serum ([5]; animal 3): 0.90 ng/mL
- Tau Protein in Serum ([5]; animal 4): 1.00 ng/mL
- Tau Protein in Serum ([5]; animal 5): 0.80 ng/mL
- Tau Protein in Serum ([5]; animal 6): 1.00 ng/mL
- BDNF in Serum ([6]; Average of 6 animals): 22.23 ng/mL
- BDNF in Serum ([6]; animal 1): 22.00 ng/mL
- BDNF in Serum ([6]; animal 2): 22.50 ng/mL
- BDNF in Serum ([6]; animal 3): 22.30 ng/mL
- BDNF in Serum ([6]; animal 4): 21.00 ng/mL
- BDNF in Serum ([6]; animal 5): 23.00 ng/mL
- BDNF in Serum ([6]; animal 6): 22.60 ng/mL
- TNF-alfa ([7]; Average of 6 animals): 2.83 ng/mL
- TNF-alfa ([7]; animal 1): 2.80 ng/mL
- TNF-alfa ([7]; animal 2): 3.10 ng/mL
- TNF-alfa ([7]; animal 3): 2.50 ng/mL
- TNF-alfa ([7]; animal 4): 3.00 ng/mL
- TNF-alfa ([7]; animal 5): 2.60 ng/mL
- TNF-alfa ([7]; animal 6): 3.00 ng/mL
- IL-6 in cerebral cortex ([8]; Average of 6 animals): 36.35 pg/mL
- IL-6 in cerebral cortex ([8]; animal 1): 37.80 pg/mL
- IL-6 in cerebral cortex ([8]; animal 2): 36.50 pg/mL
- IL-6 in cerebral cortex ([8]; animal 3): 35.70 pg/mL
- IL-6 in cerebral cortex ([8]; animal 4): 34.80 pg/mL
- IL-6 in cerebral cortex ([8]; animal 5): 36.50 pg/mL
- IL-6 in cerebral cortex ([8]; animal 6): 36.80 pg/mL
- Ach ([2]; Average of 6 animals): 68.07 pg/mg
- Ach ([2]; animal 1): 67.00 pg/mg
- Ach ([2]; animal 2): 68.50 pg/mg
- Ach ([2]; animal 3): 68.80 pg/mg
- Ach ([2]; animal 4): 68.00 pg/mg
- Ach ([2]; animal 5): 67.90 pg/mg
- Ach ([2]; animal 6): 68.20 pg/mg
- Pole climbing test, time ([3]; Average of 6 animals): 59.00 s
- Pole climbing test, time ([3]; animal 1): 65 s
- Pole climbing test, time ([3]; animal 2): 60 s
- Pole climbing test, time ([3]; animal 3): 62 s
- Pole climbing test, time ([3]; animal 4): 56 s
- Pole climbing test, time ([3]; animal 5): 54 s
- Pole climbing test, time ([3]; animal 6): 57 s
- T-Maze test, Latency time ([4]; Average of 6 animals): 18.83 s
- T-Maze test, Number of entries in discriminated arm ([4]; Average of 6 animals): 4.17
- T-Maze test, time spent in the discriminated arm ([4]; Average of 6 animals): 60.67 s
- T-Maze test, Number of entries in discriminated arm ([4]; animal 1): 5
- T-Maze test, time spent in the discriminated arm ([4]; animal 1): 60 s
- T-Maze test, Number of entries in discriminated arm ([4]; animal 2): 6
- T-Maze test, time spent in the discriminated arm ([4]; animal 2): 58 s
- T-Maze test, Number of entries in discriminated arm ([4]; animal 3): 6
- T-Maze test, time spent in the discriminated arm ([4]; animal 3): 61 s
- T-Maze test, Number of entries in discriminated arm ([4]; animal 4): 3
- T-Maze test, time spent in the discriminated arm ([4]; animal 4): 62 s
- T-Maze test, Number of entries in discriminated arm ([4]; animal 5): 3
- T-Maze test, time spent in the discriminated arm ([4]; animal 5): 60 s
- T-Maze test, Number of entries in discriminated arm ([4]; animal 6): 2
- T-Maze test, time spent in the discriminated arm ([4]; animal 6): 63 s
- T-Maze test, Number of entries in preferred arm ([4]; Average of 6 animals): 4.50
- T-Maze test, time spent in the preferred arm ([4]; Average of 6 animals): 105.67 s
- T-Maze test, Number of entries in preferred arm ([4]; animal 1): 6
- T-Maze test, time spent in the preferred arm ([4]; animal 1): 109 s
- T-Maze test, Number of entries in preferred arm ([4]; animal 2): 4
- T-Maze test, time spent in the preferred arm ([4]; animal 2): 102 s
- T-Maze test, Number of entries in preferred arm ([4]; animal 3): 5
- T-Maze test, time spent in the preferred arm ([4]; animal 3): 106 s
- T-Maze test, Number of entries in preferred arm ([4]; animal 4): 4
- T-Maze test, time spent in the preferred arm ([4]; animal 4): 108 s
- T-Maze test, Number of entries in preferred arm ([4]; animal 5): 5
- T-Maze test, time spent in the preferred arm ([4]; animal 5): 105 s
- T-Maze test, Number of entries in preferred arm ([4]; animal 6): 3
- T-Maze test, time spent in the preferred arm ([4]; animal 6): 104 s
- T-Maze test, Latency time ([4]; animal 1): 20 s
- T-Maze test, Latency time ([4]; animal 2): 19 s
- T-Maze test, Latency time ([4]; animal 3): 18 s
- T-Maze test, Latency time ([4]; animal 4): 19 s
- T-Maze test, Latency time ([4]; animal 5): 17 s
- T-Maze test, Latency time ([4]; animal 6): 20 s
